Assay results from US20240173440A1, “HIGH PURITY COPPER RADIOPHARMACEUTICAL COMPOSITIONS AND DIAGNOSTIC AND THERAPEUTIC USES THEREOF” (Nuclidium AG, priority 2022, published 2024).

Experiments:
PSMA = PSMA (Homo sapiens (Human), UniProt Q04609); test: PET/CT imaging in a patient with metastatic prostate cancer; assay type: in vivo; conditions: metastatic castration resistant prostate cancer, imaging 3 hours after administration
Protocol: Radiopharmaceutical preparation: The reaction is carried out in a GE Healthcare FASTlab 2 module. A 40 μg (28 nmol) aliquot of lyophilized NODAGA-PSMA-I&T (piCHEM, Austria) was dissolved in up to 6 mL 0.5 M sodium acetate (pH 8) and ascorbic acid (20 μg/mL), and transferred to a reaction vial. Then [^61Cu]CuCl2 in 0.05 M hydrochloric acid (0.3-1.0 GBq/mL) (3 mL) was added to the NODAGA-PSMA-I&T solution, reaching a pH between 4.5 and 6.5. The obtained reaction solution was incubated for 10 min at room temperature (approx. 20-25° C.) and dispensed to the product vial (20 mL sterile evacuated vial) over a sterile Cathivex-GV 25 mm PVDF 0.22 μm filter. The product was finally diluted with 0.9% sodium chloride for injection (B. Braun, Germany) up to 12 mL. [^61Cu]Cu-NODAGA-PSMA-I&T is produced with high radiochemical purity (≥95%). Therefore, no further purification step is necessary. All the chemicals used are trace metal grade.
The patient was co-administered […] furosemide (Lasix®, Sanofi-Aventis, Frankfurt, Germany). The imaging was performed at 3 hours following radiotracer administration on a Biograph Vision 600 (Siemens, Germany) PET/CT scanner. These images, shown in FIG. 35, were obtained from the skull to mid-thigh and reconstructed into multiplanar PT, CT, and fused PET/CT images. CT was used for attenuation correction.

LNCaP cells = test: In vitro cellular uptake (cell surface and internalized fractions) in LNCaP cells; assay type: cell-based
Protocol: The cellular uptake was studied in vitro using intact cells seeded in 6-well plates overnight. On the day of the experiment, the cells were washed and incubated with each of the exemplified [^61Cu]Cu-radiotracer at different time points, either alone or in the presence of a blocking agent to distinguish between specific and non-specific uptake. At each investigated time point, the medium containing the unbound (free) radiotracer was removed, followed by two washing steps with ice-cold phosphate-buffered saline. The cells were then treated 2×5 min with ice-cold glycine solution (0.05 M, pH 2.8) to detach the cell surface-bound radiotracer (acid released). Afterwards, the cells containing the internalized radiotracer were detached with 1 M NaOH at 37° C. and collected for measurement. The amount of specific cell surface-bound and internalized radiotracer is expressed as percentage of the total applied activity, after subtracting the non-specific values.
2-(phosphonomethyl)-pentanedioic acid (2-PMPA, 10 μM) was used to determine non-specific binding (FIG. 14).
Cellular uptake and distribution between cell surface (cell membrane bound) and internalized fractions of ^61Cu-labeled PSMA-I&T constructs versus their ^68Ga counterparts (Table 19). The values are expressed as % of the applied activity and refer to the specific uptake calculated after subtracting the non-specific values (measured in the presence of 10 μM 2-PMPA) from the total values (specific=total−non specific).

LNCaP xenografts = test: Quantitative biodistribution in LNCaP xenografted mice; assay type: in vivo; conditions: for kidney uptake: 1h p.i.
Protocol: The mice were randomly distributed in groups and euthanized at 1 and at 4 hours post-injection. The organs of interest were collected, rinsed, blotted, weighed and counted in a gamma counter. The results are expressed as percentage of injected activity per gram (% IA/g), representing the mean±standard deviation of n=4-8 mice per group and they were obtained by extrapolation from counts of an aliquot taken from the injected solution as standard.
The biodistribution of the [^61Cu]Cu-NODAGA radiotracers was compared with the reference compounds used in patients under identical experimental conditions. The mice were randomly distributed in groups, injected with the radiotracer under investigation and euthanized at 1 and at 4 hours post-injection of the radiotracers under investigation. The organs of interest were collected, rinsed, blotted, weighed and counted in a gamma counter. The results are expressed as percentage of injected activity per gram (% IA/g), representing the mean±standard deviation of all mice per group and they were obtained by extrapolation from counts of an aliquot taken from the injected solution as standard.

[1] = LNCap xenograft mice, 1 h after injection
[2] = LNCap xenograft mice, 4 h after injection

Sequence of PSMA (Q04609 whole entry): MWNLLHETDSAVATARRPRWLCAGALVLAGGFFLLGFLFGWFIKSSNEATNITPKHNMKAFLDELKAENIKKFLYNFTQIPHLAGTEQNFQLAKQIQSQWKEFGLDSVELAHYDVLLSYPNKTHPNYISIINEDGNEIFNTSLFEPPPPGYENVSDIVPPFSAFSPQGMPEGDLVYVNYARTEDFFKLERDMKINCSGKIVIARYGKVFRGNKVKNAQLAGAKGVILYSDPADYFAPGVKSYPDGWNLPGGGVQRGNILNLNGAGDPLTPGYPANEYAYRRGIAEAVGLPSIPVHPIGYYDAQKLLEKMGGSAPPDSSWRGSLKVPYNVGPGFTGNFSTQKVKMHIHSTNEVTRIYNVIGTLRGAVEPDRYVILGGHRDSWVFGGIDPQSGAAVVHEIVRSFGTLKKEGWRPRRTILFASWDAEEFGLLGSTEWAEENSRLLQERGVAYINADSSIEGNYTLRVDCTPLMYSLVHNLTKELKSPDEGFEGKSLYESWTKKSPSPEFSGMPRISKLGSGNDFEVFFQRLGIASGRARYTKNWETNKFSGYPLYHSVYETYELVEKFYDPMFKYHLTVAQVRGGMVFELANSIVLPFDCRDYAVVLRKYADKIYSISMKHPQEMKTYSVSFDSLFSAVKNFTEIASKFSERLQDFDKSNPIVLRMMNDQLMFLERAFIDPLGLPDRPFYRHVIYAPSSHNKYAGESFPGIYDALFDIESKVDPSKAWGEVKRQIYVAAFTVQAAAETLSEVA

Structure (SMILES): O=C(O)CC[C@H](NC(=O)N[C@@H](CCCCNC(=O)CCCCCCC(=O)NCCCC[C@@H](NC(=O)[C@@H](Cc1ccccc1)NC(=O)[C@@H](Cc1ccc(O)c(I)c1)NC(=O)CC[C@H](C(=O)O)N1CCN2CCN(CC1)CC(=O)[O][61Cu][O]C(=O)C2)C(=O)O)C(=O)O)C(=O)O [[^61Cu]Cu-NODAGA-PSMA-I&T]
- tracer uptake on PET/CT in patient (PSMA): intense tracer uptake by multiple osseous, pelvic lymph node, and liver metastases
- Cell surface fraction (LNCaP cells; 5 min, specific uptake): 4.3 ± 0.7 % of the applied activity
- Internalized fraction (LNCaP cells; 5 min, specific uptake): 1.2 ± 0.2 % of the applied activity
- Cell surface fraction (LNCaP cells; 15 min, specific uptake): 8.2 ± 1.0 % of the applied activity
- Internalized fraction (LNCaP cells; 15 min, specific uptake): 3.9 ± 0.4 % of the applied activity
- Cell surface fraction (LNCaP cells; 30 min, specific uptake): 10.7 ± 1.0 % of the applied activity
- Internalized fraction (LNCaP cells; 30 min, specific uptake): 7.0 ± 1.1 % of the applied activity
- Cell surface fraction (LNCaP cells; 60 min, specific uptake): 10.8 ± 1.8 % of the applied activity
- Internalized fraction (LNCaP cells; 60 min, specific uptake): 11.7 ± 1.6 % of the applied activity
- Cell surface fraction (LNCaP cells; 120 min, specific uptake): 10.2 ± 1.8 % of the applied activity
- Internalized fraction (LNCaP cells; 120 min, specific uptake): 17.6 ± 2.8 % of the applied activity
- Internalized fraction (LNCaP cells; after 1 h at 37° C.): 12±1.9%
- cellular uptake in vitro (LNCaP cells; after 1 h at 37° C.): 26.6±0.9%
- PSMA-mediated cellular uptake (LNCaP cells; after 2h at 37° C.): approx. 35%
- part of the cellular uptake being internalized (LNCaP cells; after 2h at 37° C.): 50-60%
- Biodistribution Adrenal (LNCaP xenografts; 1 hour p.i., LNCaP xenografts): 17.3 ± 3.26 % IA/g
- Biodistribution Blood (LNCaP xenografts; 1 hour p.i., LNCaP xenografts): 0.28 ± 0.06 % IA/g
- Biodistribution Bone (LNCaP xenografts; 1 hour p.i., LNCaP xenografts): 2.73 ± 0.91 % IA/g
- Biodistribution Heart (LNCaP xenografts; 1 hour p.i., LNCaP xenografts): 0.45 ± 0.15 % IA/g
- Biodistribution Intestine (LNCaP xenografts; 1 hour p.i., LNCaP xenografts): 2.11 ± 0.78 % IA/g
- Biodistribution Kidneys (LNCaP xenografts; 1 hour p.i., LNCaP xenografts): 118 ± 13 % IA/g
- Biodistribution LNCaP-tumor (LNCaP xenografts; 1 hour p.i., LNCaP xenografts): 14.0 ± 5.0 % IA/g
- Biodistribution Liver (LNCaP xenografts; 1 hour p.i., LNCaP xenografts): 1.02 ± 0.28 % IA/g
- Biodistribution Lung (LNCaP xenografts; 1 hour p.i., LNCaP xenografts): 1.69 ± 0.45 % IA/g
- Biodistribution Muscle (LNCaP xenografts; 1 hour p.i., LNCaP xenografts): 1.12 ± 0.32 % IA/g
- Biodistribution Pancreas (LNCaP xenografts; 1 hour p.i., LNCaP xenografts): 0.97 ± 0.36 % IA/g
- Biodistribution Salivary glands (LNCaP xenografts; 1 hour p.i., LNCaP xenografts): 2.01 ± 0.33 % IA/g
- Biodistribution Spleen (LNCaP xenografts; 1 hour p.i., LNCaP xenografts): 6.04 ± 1.87 % IA/g
- Biodistribution Stomach (LNCaP xenografts; 1 hour p.i., LNCaP xenografts): 1.13 ± 0.20 % IA/g
- Ratio Tumor/Blood (LNCaP xenografts; 1 hour p.i., LNCaP xenografts): 55.8 ± 20.0
- Ratio Tumor/Kidney (LNCaP xenografts; 1 hour p.i., LNCaP xenografts): 0.13 ± 0.03
- Ratio Tumor/Liver (LNCaP xenografts; 1 hour p.i., LNCaP xenografts): 14.9 ± 4.9
- Ratio Tumor/Muscles (LNCaP xenografts; 1 hour p.i., LNCaP xenografts): 13.6 ± 3.75
- kidney uptake (LNCaP xenografts; injected amount 200 μmol (so in the source)): 96 % IA/g
- kidney uptake (LNCaP xenografts; injected amount 400 μmol (so in the source)): 72 % IA/g
- kidney uptake (LNCaP xenografts; injected amount 1000 μmol (so in the source)): 34 % IA/g
- Biodistribution Adrenal (LNCaP xenografts; 4 hours p.i., LNCaP xenografts): 8.32 ± 2.87 % IA/g
- Biodistribution Blood (LNCaP xenografts; 4 hours p.i., LNCaP xenografts): 0.10 ± 0.03 % IA/g
- Biodistribution Bone (LNCaP xenografts; 4 hours p.i., LNCaP xenografts): 1.34 ± 0.48 % IA/g
- Biodistribution Heart (LNCaP xenografts; 4 hours p.i., LNCaP xenografts): 0.22 ± 0.05 % IA/g
- Biodistribution Intestine (LNCaP xenografts; 4 hours p.i., LNCaP xenografts): 1.06 ± 0.50 % IA/g
- Biodistribution Kidneys (LNCaP xenografts; 4 hours p.i., LNCaP xenografts): 91 ± 10 % IA/g
- Biodistribution LNCaP-tumor (LNCaP xenografts; 4 hours p.i., LNCaP xenografts): 10.7 ± 3.3 % IA/g
- Biodistribution Liver (LNCaP xenografts; 4 hours p.i., LNCaP xenografts): 0.72 ± 0.11 % IA/g
- Biodistribution Lung (LNCaP xenografts; 4 hours p.i., LNCaP xenografts): 0.74 ± 0.19 % IA/g
- Biodistribution Muscle (LNCaP xenografts; 4 hours p.i., LNCaP xenografts): 0.50 ± 0.22 % IA/g
- Biodistribution Pancreas (LNCaP xenografts; 4 hours p.i., LNCaP xenografts): 0.45 ± 0.09 % IA/g
- Biodistribution Salivary glands (LNCaP xenografts; 4 hours p.i., LNCaP xenografts): 0.52 ± 0.06 % IA/g
- Biodistribution Spleen (LNCaP xenografts; 4 hours p.i., LNCaP xenografts): 1.28 ± 0.39 % IA/g
- Biodistribution Stomach (LNCaP xenografts; 4 hours p.i., LNCaP xenografts): 0.66 ± 0.15 % IA/g
- Ratio Tumor/Blood (LNCaP xenografts; 4 hours p.i., LNCaP xenografts): 109 ± 43
- Ratio Tumor/Kidney (LNCaP xenografts; 4 hours p.i., LNCaP xenografts): 0.12 ± 0.03
- Ratio Tumor/Liver (LNCaP xenografts; 4 hours p.i., LNCaP xenografts): 15.4 ± 5.7
- Ratio Tumor/Muscles (LNCaP xenografts; 4 hours p.i., LNCaP xenografts): 25.4 ± 12.0
- tumor uptake (LNCaP xenografts; 4h p.i., LNCaP xenograft mice, comparison with reference radiotracer, p=0.0145): 10.7±3.3 % IA/g
- accumulation in tumor and target-positive tissues (LNCaP xenografts; LNCaP xenografts): high accumulation in PSMA-positive (LNCaP) tumor and PSMA-positive tissues
- Biodistribution Adrenal (LNCaP xenografts; [1]): 17.3 ± 3.26 % IA/g
- Biodistribution Blood (LNCaP xenografts; [1]): 0.28 ± 0.06 % IA/g
- Biodistribution Bone (LNCaP xenografts; [1]): 2.73 ± 0.91 % IA/g
- Biodistribution Heart (LNCaP xenografts; [1]): 0.45 ± 0.15 % IA/g
- Biodistribution Intestine (LNCaP xenografts; [1]): 2.11 ± 0.78 % IA/g
- Biodistribution Kidney (LNCaP xenografts; [1]): 118 ± 13 % IA/g
- Biodistribution LNCaP-tumor (LNCaP xenografts; [1]): 14.0 ± 5.0 % IA/g
- Biodistribution Liver (LNCaP xenografts; [1]): 1.02 ± 0.28 % IA/g
- Biodistribution Lung (LNCaP xenografts; [1]): 1.69 ± 0.45 % IA/g
- Biodistribution Muscle (LNCaP xenografts; [1]): 1.12 ± 0.32 % IA/g
- Biodistribution Pancreas (LNCaP xenografts; [1]): 0.97 ± 0.36 % IA/g
- Biodistribution Salivary gland (LNCaP xenografts; [1]): 2.01 ± 0.33 % IA/g
- Biodistribution Spleen (LNCaP xenografts; [1]): 6.04 ± 1.87 % IA/g
- Biodistribution Stomach (LNCaP xenografts; [1]): 1.13 ± 0.20 % IA/g
- Ratio Tumor/Blood (LNCaP xenografts; [1]): 55.8 ± 20.0
- Ratio Tumor/Kidney (LNCaP xenografts; [1]): 0.13 ± 0.03
- Ratio Tumor/Liver (LNCaP xenografts; [1]): 14.9 ± 4.9
- Ratio Tumor/Muscles (LNCaP xenografts; [1]): 13.6 ± 3.75
- Biodistribution Adrenal (LNCaP xenografts; [2]): 8.32 ± 2.87 % IA/g
- Biodistribution Blood (LNCaP xenografts; [2]): 0.10 ± 0.03 % IA/g
- Biodistribution Bone (LNCaP xenografts; [2]): 1.34 ± 0.48 % IA/g
- Biodistribution Heart (LNCaP xenografts; [2]): 0.22 ± 0.05 % IA/g
- Biodistribution Intestine (LNCaP xenografts; [2]): 1.06 ± 0.50 % IA/g
- Biodistribution Kidney (LNCaP xenografts; [2]): 90.9 ± 10.1 % IA/g
- Biodistribution LNCaP-tumor (LNCaP xenografts; [2]): 10.7 ± 3.3 % IA/g
- Biodistribution Liver (LNCaP xenografts; [2]): 0.72 ± 0.11 % IA/g
- Biodistribution Lung (LNCaP xenografts; [2]): 0.74 ± 0.19 % IA/g
- Biodistribution Muscle (LNCaP xenografts; [2]): 0.50 ± 0.22 % IA/g
- Biodistribution Pancreas (LNCaP xenografts; [2]): 0.45 ± 0.09 % IA/g
- Biodistribution Salivary gland (LNCaP xenografts; [2]): 0.52 ± 0.06 % IA/g
- Biodistribution Spleen (LNCaP xenografts; [2]): 1.28 ± 0.39 % IA/g
- Biodistribution Stomach (LNCaP xenografts; [2]): 0.66 ± 0.15 % IA/g
- Ratio Tumor/Blood (LNCaP xenografts; [2]): 109 ± 43
- Ratio Tumor/Kidney (LNCaP xenografts; [2]): 0.12 ± 0.03
- Ratio Tumor/Liver (LNCaP xenografts; [2]): 15.4 ± 5.7
- Ratio Tumor/Muscles (LNCaP xenografts; [2]): 25.4 ± 12.0
